Measurements reported in US20180360782A1, “METHOD OF MODULATING RIBONUCLEOTIDE REDUCTASE” (CASE WESTERN RESERVE UNIVERSITY, priority 2015, published 2018).
Like-named read-outs stand apart in the source and are kept apart here.

Tests used:
[1] = test system: HCT116; experiment: Time dependence of growth inhibitory activity, HCT116; type: cell-based; conditions: Homo sapiens, HCT-116
Experimental: (§1) The growth inhibition assay was performed in the Preclinical Drug Testing Laboratory of the Case Comprehensive Cancer Center using a standardized protocol. Cell lines (human colon cancer HCT116 and human breast cancer MDA-MB-231 cells) were maintained in standard growth media; RPMI1640+10% FBS+2 mM glutamine+100U/ml penicillin, 100 ug/ml streptomycin and shown to be negative for mycoplasma contamination using the MycoAlert™ Mycoplasma Detection kit (Lonza, Basel, Switzerland). Cell identity was verified by Short Tandem Repeat (STR) testing performed using the Promega StemElite kit, in the Genetic Resources Core Facility (GRCF) at Johns Hopkins University.
(§2) For growth inhibition assays, cells were harvested by trypsinization and seeded into 96-well tissue culture plates at 2500 cells/mL. The following day an equal volume of 2×-drug containing medium was added to each well. […] Cell growth was assessed by measuring DNA content per well using the method of Labarca and Paigen. Dye fluorescence was measured in a Perkin-Elmer 1420 Victor3 Multilabel plate reader using 355 nm excitation and 460 nm emission.

[2] = test system: select cancer cell lines; experiment: Cellular IC50 of NSAAH library (Table 3); type: cell-based
Experimental: (§3) Cell were maintained in standard tissue culture media (RPMI1640, +10% fetal bovine serum, plus antibiotic) and grown in a standard humidified 5% CO2 incubator at 37° C. Cells were regularly tested using the MycoAlert detection kit (Lonza Biologics) and shown to be mycoplasma-free. Initial compound screening was performed using both MDA-MB-23 land HCT-116 cell lines. For moderate throughput screening (up to 120 drugs per experiment), cells were seeded into 96 well plates and allowed to attach overnight. The following day media was removed and replaced with fresh compound containing media. Each compound was tested against both cell lines at 3 concentrations; 1 μM, 10 μM and 50 μM, in duplicate. Cells were incubated with compound containing media for three days in a standard 5% CO2 tissue culture incubator. Cell growth was assessed after 3 days using the DNA dye binding assay, as originally described by LaBarca and Paigen. Relative growth was independently calculated for each cell line, based on DNA content from corresponding cells grown in control media plus diluent (DMSO). Additional growth inhibition experiments utilized either the DNA binding assay or the Promega CellTiter 96® (MTT reduction) assay, with similar results. For detailed growth inhibition assays, cells (1500-2500 depending on the growth characteristics of the cell line) were seeded in standard 96 well tissue culture plates and allowed to attach overnight. The following day media was removed and replaced with drug containing media. Each dose group consisted of 5 replicate wells, and results are reported a Relative Growth, calculated as DNA or MTT reduction per well, divided by the signal from untreated cells, both harvested 3 days after drug administration.

[3] = test system: normal mobilized peripheral blood progenitor cells; experiment: Blood progenitor colony forming unit (CFU) assay; type: cell-based, human; conditions: 14 days
Experimental: The CFU assay was performed in the Hematopoietic Biorepository and Cellular Therapy Core Facility of the Case Comprehensive Cancer Center using a standardized protocol.
Briefly, mobilized peripheral blood mononuclear cells were collected from healthy donors by apheresis after Neupogen stimulation under University Hospitals IRB Protocol #09-90-195. Excess discarded cells were diluted to 1(10^6) cells/mL in RPMI1640+15% fetal bovine serum, 100 U/mL penicillin, 100 μg/mL streptomycin and 50.4 units/ml GM-CSF. Drug solution was added to the cell suspension and 9× volume of complete methylcellulose (Methocult H4434+50 μM hemin.). The methylcellulose/cell suspension was aliquoted into triplicate 35-mm gridded tissue culture plates and incubated in a humidified 5% CO2 incubator at 37° C. for 14 days. Plates were counted visually and clusters of >50 cells were scored as surviving colonies.

[4] = test system: MDA-MB-231, HCT116, A549 and Panc1 cell lines; experiment: Detailed growth inhibition studies, median effect dose; type: cell-based; conditions: Homo sapiens, 72 h, read-out: median effect dose (Dm), growth inhibitory activity
Experimental: Cell were maintained in standard tissue culture media (RPMI1640, +10% fetal bovine serum, plus antibiotic) and grown in a standard humidified 5% CO2 incubator at 37° C. […] For moderate throughput screening (up to 120 drugs per experiment), cells were seeded into 96 well plates and allowed to attach overnight. The following day media was removed and replaced with fresh compound containing media. Each compound was tested against both cell lines at 3 concentrations; 1 μM, 10 μM and 50 μM, in duplicate. Cells were incubated with compound containing media for three days in a standard 5% CO2 tissue culture incubator. Cell growth was assessed after 3 days using the DNA dye binding assay, as originally described by LaBarca and Paigen. Relative growth was independently calculated for each cell line, based on DNA content from corresponding cells grown in control media plus diluent (DMSO). […] The following day media was removed and replaced with drug containing media.
Over 190 compounds were screened for their ability to inhibit growth and/or induce cell death in established cancer cell lines.

[5] = Metal chelation by UV spectroscopy titration, Mg2+; type: physicochemical; conditions: 100 μM ligand, 10 mM ammonium acetate pH 7.0, metal 100 μM to 1 mM
Text: There have been multiple reports of small molecule agents inhibiting RR through the scavenging of free radicals that are required for the reduction of nucleotide diphosphates. Nitric oxide and hydroxyurea (that quench the tyrosyl free radicals), and iron chelating small molecules such as desferrioxamine (that irreversibly chelate to Fe-(II) that is essential for -housing the free radicals) are a few examples. […] Therefore to test this hypothesis, the propensity of NSAAH-E-3A to bind to Mg^2+ and Fe^2+ (both present in the inhibition assay previously described) was determined by UV spectroscopy. In 10 mM ammonium acetate buffer (pH 7.0), a 100 μM solution of NSAAH-E-3A was titrated against FeCl2.6H2O and MgCl2.6H2O idependently at varying concentrations of metal ranging from 100 μM to 1 mM. The stoichiometry of NSAAH-E-3A : M^2+ tested were 1:1, 1:2, 1:3, 1:4, 1:5, 1:6, 1:7, 1:8, 1:9, and 1:10. A scanning UV […] spectrum was recorded between 200-800 nm at each concentration. Noticeable changes occurred -when NSAAH-E-3A was subjected to a titration with FeCl2.6H2O at concentrations of metal ranging from 600 μM to 1 mM. […] Similarly, a titration experiment was carried against Mg^2+ salt at concentrations of metal ranging from 100 μM to 1 mM at stoichiometry of 1:1, 1:2, 1:3, 1:4, 1:5, 1:6, 1:7, 1:8, 1:9, and 1:10.

[6] = test system: MDA-231; experiment: Time dependence of growth inhibitory activity, MDA-231; type: cell-based; conditions: Homo sapiens, MDA-MB-231
Experimental: as §1, §2

[7] = test system: Panc1; experiment: Time dependence of growth inhibitory activity, Panc1; type: cell-based; conditions: Homo sapiens, PANC-1
[8] = test system: MDA-MB-231 and HCT-116 cell lines; experiment: Growth inhibition screening assay (In Cell IC50); type: cell-based, human; conditions: Homo sapiens, 72 h; 3 days with compound
Experimental: as §3

[9] = test system: MDA-MB-231; experiment: Combination experiment: gemcitabine with sublethal compound 2; conditions: Homo sapiens, MDA-MB-231, read-out: Dm, Gemcitabine alone

Row | IC50 ([4]; set of four cell lines, 3 days) | Structure (SMILES) | IC50 ([1]; HCT116, Drug Exposure 2 hr) | IC50 ([1]; HCT116, Drug Exposure 6 hr) | IC50 ([1]; HCT116, Drug Exposure 24 hr) | IC50 ([1]; HCT116, Drug Exposure 72 hr) | IC50 [2] | cytotoxicity against normal blood progenitor cells [3] | IC50 [4] | ligand:Mg^2+ stoichiometry at which the UV spectrum shows binding [5] | IC50 ([6]; MDA-231, Drug Exposure 2 hr) | IC50 ([6]; MDA-231, Drug Exposure 6 hr) | IC50 ([6]; MDA-231, Drug Exposure 24 hr) | IC50 ([6]; MDA-231, Drug Exposure 72 hr) | IC50 ([7]; Panc1, Drug Exposure 2 hr) | IC50 ([7]; Panc1, Drug Exposure 6 hr) | IC50 ([7]; Panc1, Drug Exposure 24 hr) | IC50 ([7]; Panc1, Drug Exposure 72 hr) | IC50 [8] | IC50 [9]
1 |  | O=C(N/N=C/c1c(O)ccc2ccccc12)c1ccccc1O [compound 3, (E)-2-hydroxy-N′-((2-hydroxynaphthalenyl)methylene) benzohydrazide] | > 10 µM | > 10 µM | 0.572 µM | 0.221 µM | 0.000225 µM | little measurable cytotoxicity | 0.5 to 1 µM | no noticeable change | > 10 µM | > 10 µM | 0.658 µM | 0.498 µM | > 10 µM | > 10 µM | 0.898 µM | 0.442 µM | 0.38 µM | 
2 | 0.5 to 1 µM | Nc1ccn([C@@H]2O[C@H](CO)[C@@H](O)C2(F)F)c(=O)n1 [Gemcitabine, reference compound] | 0.487 µM | 0.343 µM | 0.058 µM | 0.03 µM |  |  |  |  | 1.93 µM | 1.54 µM | 0.274 µM | 0.1 µM | 0.68 µM | 0.406 µM | 0.084 µM | 0.046 µM |  | 0.92 µM
